Source: patent publication US11932599B2, “Ferroptosis inducing compound, compositions comprising the same, and methods of inducing ferroptosis” (UNIVERSITY OF MASSACHUSETTS, priority 2021, dated 2024)

Tests used:
[1] = system: HT-1080 cells; experiment: Cell viability assay in HT-1080 cells, cotreatment with cell-death inhibitors; assay type: cell-based, human; settings: HT-1080, 48 h; for EC50: Homo sapiens, read-out: EC50 (μM) of FIN56 + inhbitor
[2] = system: HT-1080 cells; experiment: Cell viability assay (Alamar Blue), cytotoxicity in HT-1080 cells; assay type: cell-based, human
Experimental: Cell lines and media. In the following example, HT-1080 (Human fibrosarcoma harboring NrasQ61K) cells (obtained from ATCC) were grown in DMEM high-glucose media with 1% non-essential amino acids (Life Technologies) and 10% FBS. 143B cells were grown in DMEM high-glucose media with 1% glutamine and 10% FBS. Calu-1 cells were grown in McCoy's 5A media (Life Technologies) supplemented with 10% FBS. All the cell lines were grown at 37° C. under 5% CO2. Cell lines were not tested for mycoplasma. In addition, the panel of four lung cancer (NCI-H23; SK-Mes-1; Calu6 and A549) were purchased from ATCC. They were cultured according to the ATCC protocol of each cell line. The non-malignant breast epithelial cells (MCF10A) were maintained in DMEM/F12 medium supplemented with 5% horse serum, epidermal growth factor (20 ng/ml), insulin (10 μg/ml), hydrocortisone ([…]), cholera toxin (100 ng/ml), and penicillin/streptomycin.
Cell viability assay. 9,000 cells per 100 μl were seeded in each well in 96-well plates. Lethal compounds were dissolved in DMSO. In the mother plates, DMSO stock of each compound was further diluted with media to create 20 μM or 10 μm as highest concentrations, respectively and a twofold, 9-point dilution series was prepared. Cells were seeded for 24 h and media were replaced by the mother plate drug-dilution media. When ferroptosis inhibitors (for example, 500 nM Ferrostatin-1, 100 μM α-tocopherol, 152 μM deferoxamine) were used in cotreatments with lethal inducers, they were supplemented to cell culture when the lethal compounds were added, and the cells were then incubated for 48 h. When other cell-death-modulating compounds (100 nM sodium selenite) were used in cotreatments, they were supplemented to cell culture for 24 h before lethal compounds were added to cell culture, after which cells were further incubated for 48 h at 37° C. under 5% CO2. On the day of the viability measurement, we added 25 μl per well of 50% Alamar Blue diluted in media (Life Technologies) and further incubated the cells at 37° C. for 6 h. Fluorescence intensity (excitation/emission: 540/590) was measured with a Victor 3 plate reader (PerkinElmer), and the normalized viability was calculated as VL=(IL−I0)/(IV−I0), where VL is the normalized viability, I0 is the raw fluorescence intensities from the wells containing media, IV is the cells treated with a vehicle (negative control), and IL is the cells with the lethal compound (L), respectively. The viability was typically measured in at least biological duplicate. A representative dose-response curve, the mean and standard error of normalized viability from one replicate were plotted.
Statistical analysis and data visualization. Dose-response curve plotting and EC50 computation were performed with Prism 6.0c (GraphPad Software).
Various compounds were selected for analysis of their cytotoxicity in HT-1080 cells according to the procedure described above.

[3] = HT-1080 cells, compound alone, read-out: EC 50
[4] = Homo sapiens, HT-1080, HT-1080 cells, compound alone, read-out: EC 50

## O=S(=O)(NC1CCCCC1)c1ccc2c(c1)C(=NO)c1cc(S(=O)(=O)NC3CCCCC3)ccc1-2 [FIN56, reference compound]
[1]; DFOM (152 μM)
  Slectivity in fold [EC50 (FIN56 + inhibitor)/ EC50 inhbitor]: >60 fold
[1]; Fer 1 (500 nM)
  Slectivity in fold [EC50 (FIN56 + inhibitor)/ EC50 inhbitor]: >90 fold
[1]; ZVAD 45 μM
  Slectivity in fold [EC50 (FIN56 + inhibitor)/ EC50 inhbitor]: 0.6 fold
  blocking of the compound's lethality by the apoptosis inhibitor pathway (ZVAD): did not block
[1]; aToc (100 μM)
  Slectivity in fold [EC50 (FIN56 + inhibitor)/ EC50 inhbitor]: 34.8 fold
[1]; cotreated with DFOM (152 μM)
  EC50: > 20 µM
[1]; cotreated with Fer 1 (500 nM)
  EC50: > 30 µM
[1]; cotreated with ZVAD (45 μM)
  EC50: 0.196 µM
[1]; cotreated with aToc (100 μM)
  EC50: 11.5 µM
[2]; [3]
  EC50: 0.326 µM
[2]; Homo sapiens, HT-1080, 48 h, HT-1080 cells, 48 hour incubation, no inhibitor, read-out: EC50 (μM) of FIN56
  EC50: 0.328 µM
[2]; [4]
  EC50: 0.328 µM

## N#CC1c2cc(S(=O)(=O)NC3CCCCC3)ccc2-c2ccc(S(=O)(=O)NC3CCCCC3)cc21 [MH1013, 9-cyano-N^2,N^7-dicyclohexyl-9H-fluorene-2,7-disulfonamide]
[2]; [4]
  EC50: 13.4 µM

## C#CCON=C1c2cc(S(=O)(=O)NC3CCCCC3)ccc2-c2ccc(S(=O)(=O)NC3CCCCC3)cc21 [TKD1020, N^2,N^7-dicyclohexyl-9-((prop-2-yn-1-yloxy)imino)-9H-fluorene-2,7-disulfonamide]
[2]; [4]
  EC50: 10.8 µM

## O=S(=O)(NC12CC(C1)C2)c1ccc2c(c1)C(=NO)c1cc(S(=O)(=O)NC34CC(C3)C4)ccc1-2 [TKD1026, N^2,N^7-di(bicyclo[1.1.1]pentan-1-yl)-9-(hydroxyimino)-9H-fluorene-2,7-disulfonamide]
[2]; [3]
  EC50: 1.7 µM
[2]; [4]
  EC50: < 2 µM

## O=S(=O)(NCCF)c1ccc2c(c1)C(=NO)c1cc(S(=O)(=O)NCCF)ccc1-2 [TKD1027, N^2,N^7-bis(2-fluoroethyl)-9-(hydroxyimino)-9H-fluorene-2,7-disulfonamide]
[2]; [4]
  EC50: > 20 µM

## CNS(=O)(=O)c1ccc2c(c1)C(=NO)c1cc(S(=O)(=O)NC)ccc1-2 [TKD1034A, 9-(hydroxyimino)-N^2,N^7-dimethyl-9H-fluorene-2,7-disulfonamide]
[2]; [4]
  EC50: 12.1 µM
